Assay results reported in patent US20190048016A1, “SUBSTITUTED BRIDGED UREA ANALOGS AS SIRTUIN MODULATORS” (GlaxoSmithKline Intellectual Property(No.2)Limited, priority 2014, published 2019).
Structures can show the parent of a compound that is named as a salt.

Biological target: T1, SIRT1 (Homo sapiens, UniProt Q96EB6)
T1 sequence (Q96EB6 1-747): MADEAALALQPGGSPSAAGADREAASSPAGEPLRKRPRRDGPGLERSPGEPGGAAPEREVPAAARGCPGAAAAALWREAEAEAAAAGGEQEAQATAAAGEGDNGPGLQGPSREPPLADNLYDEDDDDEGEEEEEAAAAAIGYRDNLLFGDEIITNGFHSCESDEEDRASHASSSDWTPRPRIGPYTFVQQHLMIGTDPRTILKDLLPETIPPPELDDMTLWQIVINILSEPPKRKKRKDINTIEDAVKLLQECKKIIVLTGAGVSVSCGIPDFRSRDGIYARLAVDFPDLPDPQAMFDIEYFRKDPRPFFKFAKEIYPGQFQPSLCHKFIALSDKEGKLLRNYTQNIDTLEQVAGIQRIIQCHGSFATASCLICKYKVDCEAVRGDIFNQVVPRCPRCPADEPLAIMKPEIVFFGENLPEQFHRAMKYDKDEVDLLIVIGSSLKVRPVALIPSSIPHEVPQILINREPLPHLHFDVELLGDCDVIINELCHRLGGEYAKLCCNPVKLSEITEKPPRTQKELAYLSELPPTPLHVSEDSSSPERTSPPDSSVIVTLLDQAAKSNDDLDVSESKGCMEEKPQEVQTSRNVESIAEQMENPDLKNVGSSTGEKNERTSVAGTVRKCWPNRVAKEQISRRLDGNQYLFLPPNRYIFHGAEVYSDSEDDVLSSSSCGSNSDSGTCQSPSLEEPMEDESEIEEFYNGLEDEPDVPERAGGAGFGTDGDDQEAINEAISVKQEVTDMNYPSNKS
Experiment: Trp mass spectrometry assay of SIRT1 activation (deacetylation of Ac-R-H-K-K(Ac)-W-NH2 peptide, OAADPR formation)
Format: biochemical
Conditions: Trp peptide 0.5 μM, 120 μM βNAD+, 10 nM SIRT1, 25 min, 25° C.; for Emax: 25 min, read-out: TRP MAX RESP (percent maximum fold activation relative to control = 100%)
Source text: Mass spectrometry based assays were used to identify modulators of SIRT1 activity. The TAMRA based assay utilized a peptide having 20 amino acid residues as follows: Ac-EE-K(biotin)-[…](Ac)NleSTEG-K(5TMR)-EE-NH2 (SEQ ID NO: 1), wherein K(Ac) is an acetylated lysine residue and Nle is a norleucine. The peptide was labeled with the fluorophore 5TMR (excitation 540 nm/emission 580 nm) at the C-terminus. The sequence of the peptide substrate was based on p53 with several modifications. In addition, the methionine residue naturally present in the sequence was replaced with the norleucine because the methionine may be susceptible to oxidation during synthesis and purification. The Trp based assay utilized a peptide having an amino acid residues as follows: Ac-R-H-K-K(Ac)-W-NH2 (SEQ ID NO: 2).
The Trp mass spectrometry assay was conducted as follows. 0.5 μM peptide substrate and 120 μM βNAD^+ were incubated with 10 nM SIRT1 for 25 minutes at 25° C. in a reaction buffer (50 mM HEPES pH 7.5, […], 1 mM DTT, 0.05% BSA). The SIRT1 protein was obtained by cloning the SirT1 gene into a T7-promoter containing vector, which was then expressed in BL21(DE3) bacterial cells and purified as described in further detail below. Test compound was added at varying concentrations to this reaction mixture and the resulting reactions were monitored. After the 25 minute incubation with SIRT1, 10 μL of 10% formic acid was added to stop the reaction. The resulting reactions were sealed and frozen for later mass spec analysis. The relative SIRT1 activity was then determined by measuring the amount of O-acetyl-ADP-ribose (OAADPR) formed (or, alternatively, the amount of deacetylated Trp peptide generated) by the NAD-dependent sirtuin deacetylation reaction in the presence of varying concentrations of the test compound versus control reactions lacking the test compound. The degree to which the test agent activated deacetylation by SIRT1 was expressed as EC1.5 (i.e., the concentration of compound required to increase SIRT1 activity by 50% over the control lacking test compound), and Percent Maximum Activation (i.e., the maximum activity relative to control (100%) obtained for the test compound).
A control for inhibition of sirtuin activity was conducted by adding 1 μL of 500 mM nicotinamide as a negative control at the start of the reaction (e.g., permits determination of maximum sirtuin inhibition). A control for activation of sirtuin activity was conducted using 10 nM of sirtuin protein, with 1 μL of DMSO in place of compound, to determine the amount of deacetylation of the substrate at a given time point within the linear range of the assay. This time point was the same as that used for test compounds and, within the linear range, the endpoint represents a change in velocity.
For the above assay, SIRT1 protein was expressed and purified as follows. The SirT1 gene was cloned into a T7-promoter containing vector and transformed into BL21(DE3). The protein was expressed by induction with 1 mM IPTG as an N-terminal His-tag fusion protein at 18° C. overnight and harvested at 30,000×g. Cells were lysed with lysozyme in lysis buffer (50 mM Tris-HCl, 2 mM Tris[2-carboxyethyl] phosphine (TCEP), 10 μM ZnCl2, 200 mM NaCl) and further treated with sonication for 10 min for complete lysis. The protein was purified over a Ni-NTA column (Amersham) and fractions containing pure protein were pooled, concentrated and run over a sizing column (Sephadex S200 26/60 global). The peak containing soluble protein was collected and run on an Ion-exchange column (MonoQ). Gradient elution (200 mM-500 mM NaCl) yielded pure protein. This protein was concentrated and dialyzed against dialysis buffer (20 mM Tris-HCl, 2 mM TCEP) overnight. The protein was aliquoted and frozen at −80° C. until further use.
Sirtuin-modulating compounds of Formula (I) that activated SIRT1 were identified using the assay described above and are shown below in Table 1. […]

Structure (SMILES)	Emax [%]	TRP Activity (EC1.5, concentration of compound required to increase SIRT1 activity by 50% over control)	TRP MAX RESP (percent maximum fold activation relative to control = 100%)	TRP Activity (EC1.5, concentration of compound required to increase SIRT1 activity by 50% over control) (hydrochloride)
O=C(Nc1ncccn1)N1c2nc(N3CCCC(C(F)(F)F)C3)ccc2N2CCC[C@H]1C2 (single isomer, unassigned) [Example 18]	≥ 150	A (EC1.5<1 μM)		
O=C(Nc1cccnc1)N1c2nc(N3CCCC(C(F)(F)F)C3)ccc2N2CCC[C@H]1C2 (single isomer, unassigned) [Example 25]	≥ 150	A (EC1.5<1 μM)		
O=C(Nc1cnccn1)N1c2nc(N3CCC[C@H](C(F)(F)F)C3)ccc2N2CCC[C@H]1C2 (single isomer, unassigned) [Example 27]	≥ 150	A (EC1.5<1 μM)		
O=C(Nc1cccnc1)N1c2nc(N3CCCC(C(F)(F)F)C3)ccc2N2CCC[C@H]1C2 (single isomer, unassigned) [Example 28]		A (EC1.5<1 μM)		
O=C(Nc1cnccn1)N1c2nc(N3CCCC(C(F)(F)F)C3)ccc2N2CCC[C@H]1C2 (single isomer, unassigned) [Example 30]	≥ 150	A (EC1.5<1 μM)		
Cc1ccc2c(NC(=O)N3c4nc(C(=O)NC(CO)C(F)(F)F)ccc4N4CCC[C@H]3C4)n[nH]c2n1 (single isomer, unassigned) [Example 46]		A (EC1.5<1 μM)	A (Fold activation≥150%)	
Cc1ccc2c(NC(=O)N3c4nc(C(=O)NC5CC5(F)F)ccc4N4CCC[C@H]3C4)n[nH]c2n1 (single isomer, unassigned) [Example 48]	≥ 150	A (EC1.5<1 μM)		
O=C(NC1CC1(F)F)c1ccc2c(n1)N(C(=O)Nc1cc(OC[C@H](O)CO)ccn1)[C@H]1CCCN2C1 (single isomer, unassigned) [Example 52]		A (EC1.5<1 μM)		
Cc1ccc2c(NC(=O)N3c4nc(C(=O)NC5CC5(F)F)ccc4N4CCC[C@H]3C4)n[nH]c2n1 (single isomer, unassigned) [Example 53]		A (EC1.5<1 μM)		
O=C(Nc1cnccn1)c1cc2c(nc1N1CCCC(C(F)(F)F)C1)N[C@H]1CCCN2C1 (single isomer, unassigned) [Example 59]	≤ 150			
O=C(Nc1cncc(OCC(O)CO)n1)N1c2nc(-c3cccc(C(F)(F)F)c3)c(Cl)cc2N2CCC[C@H]1C2 (stereo in doubt) [Example 67, (9S)-3-chloro-N-(6-((R)-2,3-dihydroxypropoxy)pyrazin-2-yl)-2-(3-(trifluoromethyl)phenyl)-8,9-dihydro-6H-5,9-methanopyrido[2,3-b][1,4]diazocine-10(7H)-carboxamide]	≥ 150	A (EC1.5<1 μM)		
O=C(Nc1ccccn1)N1c2nc(N3CCC[C@H]3C(F)(F)F)ccc2N2CCC[C@H]1C2 [Example 1, (9S)-N-(pyridin-2-yl)-2-((S)-2-(trifluoromethyl)pyrrolidin-1-yl)-8,9-dihydro-6H-5,9-methanopyrido[2,3-b][1,4]diazocine-10(7H)-carboxamide]	≥ 150	B (EC1.5 1-25 μM)		

More lines, now with the values ahead:

Emax [%]	TRP Activity (EC1.5, concentration of compound required to increase SIRT1 activity by 50% over control)	TRP MAX RESP (percent maximum fold activation relative to control = 100%)	TRP Activity (EC1.5, concentration of compound required to increase SIRT1 activity by 50% over control) (hydrochloride)	Structure (SMILES)
≥ 150	B (EC1.5 1-25 μM)			O=C(Nc1ccccn1)N1c2nc(N3CCC(C(F)(F)F)C3)ccc2N2CCC[C@H]1C2 (single isomer, unassigned) [Example 8]
≥ 150	A (EC1.5<1 μM)			O=C(Nc1ccccn1)N1c2nc(N3CCCC(C(F)(F)F)C3)ccc2N2CCC[C@H]1C2 (single isomer, unassigned) [Example 11]
	A (EC1.5<1 μM)			O=C(Nc1ncccn1)N1c2nc(N3CCCC(C(F)(F)F)C3)ccc2N2CCC[C@H]1C2 (single isomer, unassigned) [Example 22]
	B (EC1.5 1-25 μM)	A (Fold activation≥150%)		O=C(Nc1ccccn1)N1c2nc(N3CCCC(C(F)(F)F)C3)ccc2N2CCC[C@H]1C2 (single isomer, unassigned) [Example 23]
≥ 150	A (EC1.5<1 μM)			O=C(Nc1ccc(F)cn1)N1c2nc(N3CCCC(C(F)(F)F)C3)ccc2N2CCC[C@H]1C2 (single isomer, unassigned) [Example 24]
	B (EC1.5 1-25 μM)	A (Fold activation≥150%)		O=C(Nc1ccc(F)cn1)N1c2nc(N3CCCC(C(F)(F)F)C3)ccc2N2CCC[C@H]1C2 (single isomer, unassigned) [Example 29]
			A (EC1.5<1 μM)	O=C(Nc1ccccn1)N1c2nc(N3CCC(C(F)(F)F)C3)ccc2N2CCC[C@H]1C2 (single isomer, unassigned) [Example 31, hydrochloride]
≥ 150	B (EC1.5 1-25 μM)			Cc1ccc2c(NC(=O)N3c4nc(C(=O)NC(CO)C(F)(F)F)ccc4N4CCC[C@H]3C4)n[nH]c2n1 (single isomer, unassigned) [Example 45]
≥ 150	A (EC1.5<1 μM)			O=C(NC1CC1(F)F)c1ccc2c(n1)N(C(=O)Nc1cc(OC[C@H](O)CO)ccn1)[C@H]1CCCN2C1 (single isomer, unassigned) [Example 50]
≤ 150				O=C(Nc1ccc(F)cn1)c1cc2c(nc1N1CCCC(C(F)(F)F)C1)N[C@H]1CCCN2C1 (single isomer, unassigned) [Example 58]
≤ 150				O=C(Nc1cccnc1)c1cc2c(nc1N1CCCC(C(F)(F)F)C1)N[C@H]1CCCN2C1 (single isomer, unassigned) [Example 60]
